# Where two headings read alike, the source gives them in different places.
# Tested on: cancer cell lines from the cancer cell line encyclopedia (CCLE)
# Assay: Cell line profiling (CLiP) proliferation experiment
# Assay type: cell-based
# Design: ACTIVITY_AREA: scale not given here; AMAX: unit not given here
# Details: for IC50: read-out: Crossing Point; for EC50: read-out: Inflection Point
# Protocol: Compound profiling experiment and data analysis was performed as previously described. Data was imported and plotted using the Tibco Spotfire DXP application. Lines were categorized as sensitive, intermediate and refractory as follows: Amax<-40 & Inflection Point <2 ~ Sensitive, Amax>-20 & Inflection Point >10 ~ Refractory, all else were called Intermediate. Cancer Cell line HG-U133 Plus 2 data was processed and normalized as described. […] Five sets of refractory cell lines were generated from the pool of refractory cell lines trying to match the lineage composition of the set of sensitive cell lines. The limma package was used as previously described to perform the statistical comparison.
# [1] = CAS-1, central_nervous_system, astrocytoma_Grade_IV
# [2] = CCK-81, large_intestine, adenocarcinoma
# [3] = CCRF-CEM, haematopoietic_and_lymphoid_tissue, acute_lymphoblastic_T_cell_leukaemia
# [4] = CFPAC-1, pancreas, ductal_carcinoma
# [5] = CI-1, haematopoietic_and_lymphoid_tissue, B_cell_lymphoma_unspecified
# [6] = CMK, haematopoietic_and_lymphoid_tissue, acute_myeloid_leukaemia
# [7] = CMK-11-5, haematopoietic_and_lymphoid_tissue, acute_myeloid_leukaemia
# [8] = CML-T1, haematopoietic_and_lymphoid_tissue, blast_phase_chronic_myeloid_leukaemia
# [9] = COLO 205, large_intestine, adenocarcinoma
# [10] = COLO 668, lung, small_cell_carcinoma
# [11] = COLO 775, haematopoietic_and_lymphoid_tissue, chronic_myeloid_leukaemia
# [12] = COLO-320, large_intestine, adenocarcinoma
# [13] = COLO-680N, oesophagus, squamous_cell_carcinoma
# [14] = COR-L23, lung, large_cell_carcinoma
# [15] = COR-L47, lung, small_cell_carcinoma
# [16] = COR-L88, lung, small_cell_carcinoma
# [17] = COR-L279, lung, small_cell_carcinoma
# [18] = Calu-6, lung, undifferentiated_carcinoma
# [19] = Capan-1, pancreas, ductal_carcinoma
# [20] = DBTRG-05MG, central_nervous_system, astrocytoma_Grade_IV
# [21] = DK-MG, central_nervous_system, astrocytoma_Grade_IV
# [22] = DLD-1, large_intestine, adenocarcinoma
# [23] = DMS 114, lung, small_cell_carcinoma
# [24] = DMS 273, lung, small_cell_carcinoma
# [25] = Daoy, central_nervous_system, NS
# [26] = Detroit 562, upper_aerodigestive_tract, NS
# [27] = EFM-192A, cell line EFM-192A, breast
# [28] = HCC1500, cell line HCC1500, breast
smiles,measurement,setting,value
CC(C)[C@@]12C[C@@H](O)[C@@](C)(O1)[C@@H]1CC[C@@H](C)[C@H]1[C@@H]2OC(=O)/C=C/c1ccccc1 [Englerin B],effect on proliferation of cancer cell lines,524 cancer cell lines from the CCLE,no cancer cell lines have their growth potently inhibited
same,IC50,A4/Fuk cells,18.1 µM
same,EC50,A4/Fuk cells,18.1 µM
same,IC50,"ACC-MESO-1, ACC-MESO-1 cells",> 30 µM
same,IC50,"ACC-MESO-1, cell line ACC-MESO-1, pleura, NS",> 30 µM
same,IC50,BDCM cells,16.9 µM
same,EC50,BDCM cells,16.9 µM
same,EC50,BHY cells,9.33 µM
same,IC50,BICR 6 cells,23 µM
same,EC50,BICR 6 cells,23 µM
same,EC50,BICR 22 cells,15 µM
same,IC50,"CAL-78, bone, dedifferentiated",> 30 µM
same,IC50,CAL-78 cells,> 30 µM
same,ACTIVITY_AREA,"CAMA-1, breast, NS",21.9
same,AMAX,"CAMA-1, breast, NS",-43.81
same,RESPONSE,"CAMA-1, breast, NS",INTERMEDIATE
same,ACTIVITY_AREA,[1],8.27
same,AMAX,[1],-27.8
same,RESPONSE,[1],INTERMEDIATE
same,IC50,[1],> 30 µM
same,IC50,CAS-1 cells,> 30 µM
same,ACTIVITY_AREA,[2],19.43
same,AMAX,[2],-61.47
same,RESPONSE,[2],INTERMEDIATE
same,IC50,[2],24.9 µM
same,EC50,[2],24.9 µM
same,IC50,CCK-81 cells,24.9 µM
same,EC50,CCK-81 cells,24.9 µM
same,ACTIVITY_AREA,[3],12.38
same,AMAX,[3],-48.26
same,RESPONSE,[3],INTERMEDIATE
same,ACTIVITY_AREA,[4],25.86
same,AMAX,[4],-50.08
same,RESPONSE,[4],INTERMEDIATE
same,ACTIVITY_AREA,"CHL-1, skin, NS",19.98
same,AMAX,"CHL-1, skin, NS",-60.11
same,RESPONSE,"CHL-1, skin, NS",INTERMEDIATE
same,ACTIVITY_AREA,"CHP-212, autonomic_ganglia, NS",33.44
same,AMAX,"CHP-212, autonomic_ganglia, NS",-55.99
same,RESPONSE,"CHP-212, autonomic_ganglia, NS",INTERMEDIATE
same,ACTIVITY_AREA,[5],19.7
same,AMAX,[5],16.67
same,RESPONSE,[5],REFRACTORY
same,IC50,[5],> 30 µM
same,ACTIVITY_AREA,[6],61.63
same,AMAX,[6],-8.06
same,RESPONSE,[6],REFRACTORY
same,IC50,[6],> 30 µM
same,IC50,"CMK-11-5, CMK-11-5, haematopoietic_and_lymphoid_tissue, acute_myeloid_leukaemia",24.1 µM
same,ACTIVITY_AREA,[7],101.26
same,AMAX,[7],-51.95
same,RESPONSE,[7],INTERMEDIATE
same,IC50,"CML-T1, CML-T1, haematopoietic_and_lymphoid_tissue, blast_phase_chronic_myeloid_leukaemia",17.9 µM
same,ACTIVITY_AREA,[8],42.33
same,AMAX,[8],-73.13
same,RESPONSE,[8],INTERMEDIATE
same,ACTIVITY_AREA,[9],33.02
same,AMAX,[9],-61.38
same,RESPONSE,[9],INTERMEDIATE
same,ACTIVITY_AREA,[10],28.83
same,AMAX,[10],-55.03
same,RESPONSE,[10],INTERMEDIATE
same,IC50,"COLO 699, COLO-699, lung, adenocarcinoma",3.62 µM
same,IC50,"COLO 704, COLO-704, ovary, NS",6.82 µM
same,ACTIVITY_AREA,"COLO 741, skin, NS",12.88
same,AMAX,"COLO 741, skin, NS",-37.55
same,RESPONSE,"COLO 741, skin, NS",INTERMEDIATE
same,ACTIVITY_AREA,[11],59.22
same,AMAX,[11],-93.44
same,RESPONSE,[11],INTERMEDIATE
same,IC50,[11],9.44 µM
same,EC50,[11],9.31 µM
same,ACTIVITY_AREA,"COLO 792, skin, NS",11.82
same,AMAX,"COLO 792, skin, NS",-22.14
same,RESPONSE,"COLO 792, skin, NS",INTERMEDIATE
same,IC50,"COLO 792, skin, NS",> 30 µM
same,EC50,"COLO 792, skin, NS",16 µM
same,IC50,COLO 792 cells,> 30 µM
same,EC50,COLO 792 cells,16 µM
same,ACTIVITY_AREA,"COLO 829, skin, NS",31.7
same,AMAX,"COLO 829, skin, NS",-7.17
same,RESPONSE,"COLO 829, skin, NS",REFRACTORY
same,ACTIVITY_AREA,[12],102.29
same,AMAX,[12],-70.01
same,RESPONSE,[12],INTERMEDIATE
same,ACTIVITY_AREA,[13],26.11
same,AMAX,[13],-34.59
same,RESPONSE,[13],INTERMEDIATE
same,ACTIVITY_AREA,"COLO-699, lung, adenocarcinoma",153.56
same,AMAX,"COLO-699, lung, adenocarcinoma",-71.88
same,RESPONSE,"COLO-699, lung, adenocarcinoma",INTERMEDIATE
same,ACTIVITY_AREA,"COLO-704, ovary, NS",138.81
same,AMAX,"COLO-704, ovary, NS",-63.22
same,RESPONSE,"COLO-704, ovary, NS",INTERMEDIATE
same,ACTIVITY_AREA,"COLO-800, skin, NS",66.95
same,AMAX,"COLO-800, skin, NS",-43.63
same,RESPONSE,"COLO-800, skin, NS",INTERMEDIATE
same,ACTIVITY_AREA,[14],32.4
same,AMAX,[14],-39.64
same,RESPONSE,[14],INTERMEDIATE
same,ACTIVITY_AREA,[15],92.1
same,AMAX,[15],-15.76
same,RESPONSE,[15],REFRACTORY
same,ACTIVITY_AREA,[16],20.83
same,AMAX,[16],-31.56
same,RESPONSE,[16],INTERMEDIATE
same,ACTIVITY_AREA,[17],130.29
same,AMAX,[17],-86.84
same,RESPONSE,[17],INTERMEDIATE
same,IC50,"COV318, COV318, ovary, NS",25.6 µM
same,EC50,"COV318, COV318, ovary, NS",25.6 µM
same,ACTIVITY_AREA,"COV318, ovary, NS",39.59
same,AMAX,"COV318, ovary, NS",-54.13
same,RESPONSE,"COV318, ovary, NS",INTERMEDIATE
same,IC50,"COV504, COV504, ovary, NS",> 30 µM
same,IC50,"COV504, cell line COV504 (ovary, NS)",> 30 µM
same,ACTIVITY_AREA,"COV504, ovary, NS",33.53
same,AMAX,"COV504, ovary, NS",-45.79
same,RESPONSE,"COV504, ovary, NS",INTERMEDIATE
same,ACTIVITY_AREA,"COV644, ovary, NS",35.24
same,AMAX,"COV644, ovary, NS",-28.86
same,RESPONSE,"COV644, ovary, NS",INTERMEDIATE
same,IC50,"COV644, ovary, NS",> 30 µM
same,EC50,"COV644, ovary, NS",3.05 µM
same,IC50,COV644 cells,> 30 µM
same,EC50,COV644 cells,3.05 µM
same,ACTIVITY_AREA,"Calu-3, lung, adenocarcinoma",19.78
same,AMAX,"Calu-3, lung, adenocarcinoma",4.65
same,RESPONSE,"Calu-3, lung, adenocarcinoma",REFRACTORY
same,ACTIVITY_AREA,[18],28.42
same,AMAX,[18],-47.13
same,RESPONSE,[18],INTERMEDIATE
same,ACTIVITY_AREA,"Caov-3, ovary, adenocarcinoma",128.76
same,AMAX,"Caov-3, ovary, adenocarcinoma",-55.06
same,RESPONSE,"Caov-3, ovary, adenocarcinoma",INTERMEDIATE
same,ACTIVITY_AREA,[19],29.63
same,AMAX,[19],-25.75
same,RESPONSE,[19],INTERMEDIATE
same,IC50,"Ci-1, CI-1 cells",> 30 µM
same,IC50,DAN-G cells,29.3 µM
same,EC50,DAN-G cells,29.3 µM
same,ACTIVITY_AREA,"DAN-G, pancreas, NS",26.93
same,AMAX,"DAN-G, pancreas, NS",-50.77
same,RESPONSE,"DAN-G, pancreas, NS",INTERMEDIATE
same,IC50,"DAN-G, pancreas, NS",29.3 µM
same,EC50,"DAN-G, pancreas, NS",29.3 µM
same,ACTIVITY_AREA,[20],21.88
same,AMAX,[20],-30.64
same,RESPONSE,[20],INTERMEDIATE
same,ACTIVITY_AREA,[21],33.27
same,AMAX,[21],-67.8
same,RESPONSE,[21],INTERMEDIATE
same,IC50,[21],16.1 µM
same,EC50,[21],12.5 µM
same,ACTIVITY_AREA,[22],71.46
same,AMAX,[22],-59.67
same,RESPONSE,[22],INTERMEDIATE
same,ACTIVITY_AREA,[23],21.61
same,AMAX,[23],-57.16
same,RESPONSE,[23],INTERMEDIATE
same,ACTIVITY_AREA,[24],29.68
same,AMAX,[24],-73.92
same,RESPONSE,[24],INTERMEDIATE
same,ACTIVITY_AREA,[25],43
same,AMAX,[25],-39.21
same,RESPONSE,[25],INTERMEDIATE
same,ACTIVITY_AREA,[26],35.45
same,AMAX,[26],-46.18
same,RESPONSE,[26],INTERMEDIATE
same,IC50,[27],22.9 µM
same,EC50,[27],22.9 µM
same,EC50,"EFM-192A, cell line EFM-192A",22.9 µM
same,IC50,"GP2d, cell line GP2d, large_intestine",> 30 µM
same,IC50,"GP2d, cell line GP2d",> 30 µM
same,IC50,"HCC15, cell line HCC-15, lung",15.5 µM
same,IC50,"HCC366, cell line HCC-366, lung",> 30 µM
same,IC50,"HCC366, cell line HCC-366",> 30 µM
same,IC50,"HCC1171, cell line HCC-1171, lung",26.9 µM
same,IC50,[28],> 30 µM
same,EC50,[28],8.24 µM
same,IC50,"HCC1500, cell line HCC1500",> 30 µM
same,IC50,"HEC-6, cell line HEC-6, endometrium",> 30 µM
same,IC50,"HEC-6, cell line HEC-6",> 30 µM
same,IC50,"HEC-50B, cell line HEC-50B, endometrium",> 30 µM

# Source: publication PMC4476799, “Englerin A Agonizes the TRPC4/C5 Cation Channels to Inhibit Tumor Cell Line Proliferation” (PLoS ONE, 2015)
